Measurements taken from patent US20240197729A1, “ALK-5 Inhibitors and Uses Thereof” (Sumitomo Pharma Oncology, Inc., priority 2021, published 2024).

Assays:
[1] = system: BMP-6/ALK2/Hepcidin pathway; test: ALK2 off-target assay, hepcidin mRNA in HepG2 hepatocytes; assay type: cell-based, human; conditions: Homo sapiens; HepG2, 40 ng/ml BMP-6, 3 h; read-out: IC50, hepcidin mRNA expression
Protocol: In this study, LDN214117 (an ALK2 inhibitor available from Selleck Chemicals S7627) was included as a positive control, and vactosertib (an ALK5 inhibitor available from MedChem Express HY-19928) was included as a negative control.
HepG2 human hepatocytes (ATCC HB-8065) were seeded in EMEM (ATCC30-2003)+10% FBS in 96-well plate and allowed to grow overnight at 5% CO2 at 37° C. The next day, cells were pre-treated with selected compounds (Compound 01, 04 or 05) or one of the control compounds at various concentrations, or with vehicle (DMSO) for one hour. Cells were then stimulated with recombinant human BMP-6 (R&D Systems 507-BP-020) at a final concentration of 40 ng/ml, in the presence of test compound or DMSO for three hours. A no-BMP-6 stimulation condition was included for baseline hepcidin level measurement.
Hepcidin mRNA expression was measured by real-time RT-PCR with Cells-to-CT 1-Step TaqMan Kit (ThermoFisher A25603) following manufacturer's instructions. GAPDH levels were measured, and served as a normalization control. Hepcidin primer: TaqMan HAMP-FAM/MGB 20×(ThermoFisher 4331182); GAPDH primer: TaqMan GAPDH-VIC/MGB 20×(ThermoFisher 4326317E). Delta-delta Ct method was used to obtain relative Hepcidin expression.
The selected compounds and control compounds LDN214117 and vactosertib were tested at drug concentrations of 20 micromolar to 1.22 nanomolar at 4-fold serial dilution. All wells contained the same DMSO concentrations. IC50 values were calculated using nonlinear regression model with GraphPad Prism software. The results of the ALK-2 off-target assay are reported in Table 3B, where “++” indicates 0.1 μM<IC50≤1 μM and “+++” indicates […].

[2] = system: phospho-SMAD-2 (Ser465/Ser467); test: A549 xenograft assay, p-SMAD2; assay type: in vivo, mice; conditions: for Average % p-SMAD2 (Ser 465/467) of vehicle: tumors 4 h after dosing; for efficacious dose derived from p-SMAD2 inhibition in the A549 xenograft mouse model: per oral gavage
Text: To test compounds for inhibition of in vivo on-target activity (ALK5/TGF-bR1 inhibition) as well as potential Janus Kinase (JAK) signaling off-target activity, the A549 murine xenograft model was utilized. An ALK5 inhibitor (e.g., vactosertib) is expected to reduce the amount of the TGF-beta signaling molecule phospho-SMAD-2 (pSMAD2) in the A549 xenograft cells. The TGF-beta-mediated phosphorylation of SMAD2 in A549 cells takes place at amino acid residue four hundred and sixty-five and four hundred and sixty-seven (both are serine residues). A JAK inhibitor (e.g., ruxolitinib) is expected to reduce the phosphorylation of signal transducer and activator of transcription (STAT) proteins such as STAT3 at amino acid residue 705 (tyrosine).
At eight weeks of age, female athymic nude mice (purchased from Charles River) were injected with approximately 3.5 million A549 cells (ATCC, CCL-185). Specifically, cells were harvested and resuspended in plain RPMI media (no phenol red added) and Matrigel (Corning 356237) at a one to one ratio, and two hundred-microliters were injected into the right hind flank of each mouse. Tumors were measured every three days by caliper and as tumors reached an average of seventy-eighty millimeters cubed, mice were randomized in groups of three. All compounds were resuspended in 1-methyl-2-pyrrolidinone (Sigma 494496) (10%) plus 20% Solutol (Sigma 42966) in water (90%). Vactosertib and ruxolitinib were included as controls as ALK5 signaling inhibitor and JAK signaling inhibitor, respectively. Both controls were given at seventy-five milligrams per kilogram to three mice. The drug suspensions were sonicated for fifteen minutes to generate a fine particle suspension before being given to the mice. Mice were dosed (per oral gavage) with drug at one hundred, seventy-five, fifty, or ten milligrams per kilogram, with three mice per group. A vehicle control group with three mice was used to establish the baseline level of phospho-SMAD-2 in the tumor xenograft.
Four hours after drug administration, tumors were harvested, snap frozen and stored at negative eighty degrees Celsius until further processing. The phospho-SMAD-2 levels were determined using the Bio-Plex Pro™ Phospho-Smad2 (Ser465/Ser467) Set (BioRad 171V50019M). The phospho STAT3 levels were determined using the bead/antibody set from the MILLIPLEXMAP STAT Cell Signaling Magnetic Bead 5-Plex Kit (Millipore 48-610MAG). Both phospho SMAD-2 levels and phospho STAT3 levels were normalized to ß-Tubulin (MILLIPLEX MAP ß-Tubulin Total Magnetic Bead MAPmate™, Millipore 46-713MAG) or GAPDH (MILLIPLEX MAP GAPDH Total Magnetic Bead MAPmate™, Millipore 46-667MAG) levels from each sample. All analytes were analyzed in a multiplex fashion with the Bio-Plex Pro Cell Signaling Reagent Kit (BioRad 171304006M). Briefly, frozen tumor (fifteen to thirty milligrams) was lysed in 100 μl lysis buffer, processed in bead mill tube, and centrifuged. The resulting lysate was used at 1:50 dilution for the assay according to the manufacturer's instructions. Bead suspension was analyzed using the Luminex system (MAGPIX).

[3] = system: SMAD signaling triggered by myostatin; test: Myostatin-triggered SMAD signaling in RDSR cells; assay type: cell-based; conditions: Homo sapiens, 50 ng/ml myostatin, 24 h
Protocol: To determine the ability of compounds to inhibit the SMAD signaling triggered by myostatin, and therefore possibly help alleviate cachexia in cancer patients, the following assay was performed. The RD cell line, a human rhabdomyosarcoma cell line, was purchased from ATCC (CCL-136) and a stably SMAD reporter plasmid (Promega, pGL4.48[luc2P/SBE/Hygro]) was introduced to create the RD SMAD Reporter (RDSR) cell line. Twenty thousand RDSR cells were seeded into a 96-well plate (Greiner bio-one 655083) in DMEM media supplemented with 10% fetal bovine serum. Cells were pre-incubated with selected compounds at various concentrations (8-point curve ranging from 10 micromolar to 610 picomolar) for one hour, then were stimulated with 50 nanograms per milliliter myostatin (R&D, 788-G8-010) for twenty-four hours. The luciferase signal was then read out with One-Glo substrate on the Envision plate reader.

| SMILES | IC50 [1] | Average % p-SMAD2 (Ser 465/467) of vehicle ([2]; 10 mg/kg per oral gavage) | Average % p-SMAD2 (Ser 465/467) of vehicle ([2]; 50 mg/kg per oral gavage) | Average % p-SMAD2 (Ser 465/467) of vehicle ([2]; 75 mg/kg per oral gavage) | Average % p-SMAD2 (Ser 465/467) of vehicle ([2]; 100 mg/kg per oral gavage) | efficacious dose derived from p-SMAD2 inhibition in the A549 xenograft mouse model [2] | IC50 [3] | inhibition of the biomarker p-SMAD2 ([2]; seventy-five milligrams per kilogram) |
| --- | --- | --- | --- | --- | --- | --- | --- | --- |
| Cc1nn(CC(F)(F)F)cc1Nc1cc(Nc2cnnc3c(C)cccc23)ccn1 [Compound 01, N2-[3-methyl-1-(2,2,2-trifluoroethyl)-1H-pyrazol-4-yl]-N4-(8-methylcinnolin-4-yl)pyridine-2,4-diamine] | ≥ 1000 nM | 97% | 33% | 13% | 8% | seventy-five | 57.1 nM |  |
| Clc1cccc2c(Nc3ccnc(Nc4cccc(N5CCOCC5)c4)c3)cnnc12 [Compound 04, N4-(8-chlorocinnolin-4-yl)-N2-[3-(morpholin-4-yl)phenyl]pyridine-2,4-diamine] | 100 to 1000 nM | 69% | 13% | 6% | 7% | fifty | 19.1 nM | 94% |
| Cc1cccc2c(Nc3ccnc(Nc4ccc(N5CCOCC5)cc4)c3)cnnc12 [Compound 05, N4-(8-methylcinnolin-4-yl)-N2-[4-(morpholin-4-yl)phenyl]pyridine-2,4-diamine] | 100 to 1000 nM | 136% | 74% | 11% | 13% |  |  |  |
| Cc1cccc(-c2[nH]c(CNc3ccccc3F)nc2-c2ccc3ncnn3c2)n1 [Vactosertib, vactosertib, reference compound] | ≥ 1000 nM |  |  | 32% |  |  | 16.4 nM |  |
